# Results published in ChEMBL document CHEMBL1136282, “Design and synthesis of small chemical inhibitors containing different scaffolds for lck SH2 domain” (Bioorg Med Chem Lett, 2003).
# pIC50: −log10 of the molar value. Square brackets hold non-standard residues; d marks the D form. Peptide text beside a SMILES is read from it. pY = N[C@@H](Cc1ccc(OP(=O)(O)O)cc1)C(=O)O
# Molecular target: Tyrosine-protein kinase Lck (Homo sapiens, UniProt P06239)
# Experiment: Inhibition of binding to p56 Lck tyrosine kinase SH2 domain
# Chain of Tyrosine-protein kinase Lck (P06239 whole entry, the tested form may be a part): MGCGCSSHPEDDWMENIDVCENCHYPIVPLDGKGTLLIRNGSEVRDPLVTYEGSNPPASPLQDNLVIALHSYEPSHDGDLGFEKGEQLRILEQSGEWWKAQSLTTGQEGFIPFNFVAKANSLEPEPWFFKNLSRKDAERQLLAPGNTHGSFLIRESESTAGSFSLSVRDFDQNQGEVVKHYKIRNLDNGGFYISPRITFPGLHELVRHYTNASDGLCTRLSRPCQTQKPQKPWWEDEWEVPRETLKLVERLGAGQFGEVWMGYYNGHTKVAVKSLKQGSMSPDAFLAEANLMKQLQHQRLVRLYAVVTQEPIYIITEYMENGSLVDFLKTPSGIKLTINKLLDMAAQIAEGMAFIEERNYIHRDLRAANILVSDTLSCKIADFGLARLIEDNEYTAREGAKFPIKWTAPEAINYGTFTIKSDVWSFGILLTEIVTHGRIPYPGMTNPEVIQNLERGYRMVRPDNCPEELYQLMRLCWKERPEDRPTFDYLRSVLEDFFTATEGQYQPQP
row,Compound,pIC50
1,COC(=O)[C@@H](Cc1ccc(O)c(O)c1)NC(=O)NCc1ccc(O)c(O)c1,4.01
2,COC(=O)[C@@H](Cc1ccc(O)c(O)c1)NC/C=C/c1ccc(O)c(O)c1,< 3.30
3,COC(=O)[C@@H](Cc1ccc(O)c(O)c1)/N=C(S)\C=C\c1ccc(O)c(O)c1,3.79
4,CC[C@H](C)[C@H](NC(=O)[C@H](CCC(=O)O)NC(=O)[C@H](CCC(=O)O)NC(=O)[C@H](Cc1ccc(OP(=O)(O)O)cc1)NC(C)=O)C(=O)N[C@@H](CCC(=O)O)C(=O)O (Ac-[pY]EEIE-OH),5.82

# Second part, the molecule after the results:
row,pIC50,Compound
1,3.83,COC(=O)[C@@H](Cc1ccc(O)c(O)c1)N(C)C(=O)/C=C/c1ccc(O)c(O)c1
2,4.70,O=C(/C=C/c1ccc(O)c(O)c1)N[C@H](Cc1ccc(O)c(O)c1)C(=O)O
3,4.62,O=C(/C=C/c1ccc(O)c(O)c1)O[C@H](Cc1ccc(O)c(O)c1)C(=O)O [ROSMARINIC ACID]
4,3.92,COC(=O)[C@@H](Cc1ccc(O)c(O)c1)NC(=O)/C=C/c1ccc(O)c(O)c1
